Values of other authors in patent US9446036B2, “Compositions of a polyorthoester and an aprotic solvent” (Heron Therapeutics, Inc., priority 2013, dated 2016).

Conditions: room temperature (20-25° C.)

Structure (SMILES)	Water Miscibility
CCN1CCCC1=O [n-ethyl-2-pyrrolidone]	water miscible
CCCCCCCCCCCCCC(=O)OC(C)C [isopropyl myristate]	poorly miscible
CCOC(C)=O [ethyl acetate]	partially miscible
C1CCOC1 [tetrahydrofuran]	water miscible
O=C(OCc1ccccc1)c1ccccc1 [benzyl benzoate]	poorly miscible
CN1CCCC1=O [N-methyl-2-pyrrolidone (NMP), N-methyl-2-pyrrolidone]	water miscible
COC(C)=O [methyl acetate]	water miscible
CC1COC(=O)O1 (centres unmarked) [4-methyl-1,3-diololan-2-one]	water miscible
O=C1CCCN1C1CCCCC1 [N-cyclohexyl-2-pyrrolidone]	poorly miscible
COC(=O)C(C)O (centres unmarked) [methyl lactate]	water miscible
C[S+](C)[O-] [dimethyl sulfoxide]	water miscible
CCCCCCCC/C=C\CCCCCCCC(=O)OCC [ethyl oleate]	poorly miscible
CCOC(=O)C(C)O (centres unmarked) [ethyl lactate]	water miscible
O=C1CCCCCO1 [ester-caprolactone]	water miscible
